Reference: patent publication US10280159B2 (AbbVie Deutschland GmbH & Co. KG, priority 2015, dated 2019)
pEC50: −log10 of the molar value. Counter-ions that a name gives are not always drawn.

What was measured:
Assay type in all cases: cell-based
[1] = target: T1, human S1PR5 (Homo sapiens, UniProt Q9H228); test: Intracellular Ca2+ release (FLIPR) agonist potency, S1P5; conditions: recombinant CHO-K1 cells expressing human S1PR5, aequorin, Gq/i5; Calcium 5 FLIPR; read-out: S1P5 EC50 range
T1 construct: host or cells: CHO-K1
T1 sequence (Q9H228 whole entry): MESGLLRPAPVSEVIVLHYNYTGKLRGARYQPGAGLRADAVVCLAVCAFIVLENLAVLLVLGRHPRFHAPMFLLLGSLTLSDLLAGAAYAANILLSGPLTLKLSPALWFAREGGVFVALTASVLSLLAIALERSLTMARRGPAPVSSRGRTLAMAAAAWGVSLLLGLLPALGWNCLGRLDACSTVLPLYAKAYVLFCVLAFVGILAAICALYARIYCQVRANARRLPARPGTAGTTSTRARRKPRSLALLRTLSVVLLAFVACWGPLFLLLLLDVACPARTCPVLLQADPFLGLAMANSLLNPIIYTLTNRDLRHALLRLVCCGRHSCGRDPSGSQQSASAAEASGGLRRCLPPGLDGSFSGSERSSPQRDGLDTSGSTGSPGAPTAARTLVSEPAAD
Summary of the method: (§1)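 CHO-K1 cells expressing the human receptor, aequorin and Gq/i5 were used; Ca²⁺ release read on FLIPR. EC50 derived from nonlinear fit of fluorescence data normalized to the phospho-fingolimod reference curve.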

[2] = target: T2, human S1PR1 (Homo sapiens, UniProt P21453); test: Intracellular Ca2+ release (FLIPR) agonist potency, S1P1; conditions: recombinant CHO-K1 cells expressing human S1PR1, aequorin, Gq/i5; Calcium 5 FLIPR; read-out: S1P1 EC50
T2 construct: host or cells: CHO-K1
T2 sequence (P21453 whole entry): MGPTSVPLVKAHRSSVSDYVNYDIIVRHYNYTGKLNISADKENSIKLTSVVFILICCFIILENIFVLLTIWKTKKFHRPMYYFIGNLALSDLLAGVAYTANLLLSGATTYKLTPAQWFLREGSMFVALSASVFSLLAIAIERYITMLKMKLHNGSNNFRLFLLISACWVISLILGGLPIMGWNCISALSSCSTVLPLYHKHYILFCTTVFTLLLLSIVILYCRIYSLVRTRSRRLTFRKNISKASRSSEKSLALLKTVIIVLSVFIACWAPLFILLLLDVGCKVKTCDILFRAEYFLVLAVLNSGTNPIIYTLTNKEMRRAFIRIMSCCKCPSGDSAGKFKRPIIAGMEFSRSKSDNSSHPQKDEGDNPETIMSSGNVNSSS
Summary of the method: as §1

[3] = target: T3, human S1PR3 (Homo sapiens, UniProt Q99500); test: Intracellular Ca2+ release (FLIPR) agonist potency, S1P3; conditions: recombinant CHO-K1 cells expressing human S1PR3, aequorin, Gq/i5; Calcium 5 FLIPR; read-out: S1P3 EC50
T3 construct: host or cells: CHO-K1
T3 sequence (Q99500 whole entry): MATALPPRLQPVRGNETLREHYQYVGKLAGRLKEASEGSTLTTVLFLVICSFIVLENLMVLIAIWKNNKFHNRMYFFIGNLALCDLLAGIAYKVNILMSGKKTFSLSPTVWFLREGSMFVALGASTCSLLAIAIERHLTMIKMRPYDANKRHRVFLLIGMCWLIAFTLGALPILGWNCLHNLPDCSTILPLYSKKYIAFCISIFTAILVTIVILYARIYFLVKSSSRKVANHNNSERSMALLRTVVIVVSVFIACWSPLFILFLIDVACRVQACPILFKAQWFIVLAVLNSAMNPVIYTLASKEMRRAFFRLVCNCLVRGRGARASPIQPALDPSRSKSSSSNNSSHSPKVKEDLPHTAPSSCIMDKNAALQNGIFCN
Summary of the method: as §1

[4] = target: T4, human S1PR4 (Homo sapiens, UniProt O95977); test: Intracellular Ca2+ release (FLIPR) agonist potency, S1P4; conditions: recombinant CHO-K1 cells expressing human S1PR4, aequorin, Gq/i5; Calcium 5 FLIPR; read-out: S1P4 EC50
T4 construct: host or cells: CHO-K1
T4 sequence (O95977 1-384): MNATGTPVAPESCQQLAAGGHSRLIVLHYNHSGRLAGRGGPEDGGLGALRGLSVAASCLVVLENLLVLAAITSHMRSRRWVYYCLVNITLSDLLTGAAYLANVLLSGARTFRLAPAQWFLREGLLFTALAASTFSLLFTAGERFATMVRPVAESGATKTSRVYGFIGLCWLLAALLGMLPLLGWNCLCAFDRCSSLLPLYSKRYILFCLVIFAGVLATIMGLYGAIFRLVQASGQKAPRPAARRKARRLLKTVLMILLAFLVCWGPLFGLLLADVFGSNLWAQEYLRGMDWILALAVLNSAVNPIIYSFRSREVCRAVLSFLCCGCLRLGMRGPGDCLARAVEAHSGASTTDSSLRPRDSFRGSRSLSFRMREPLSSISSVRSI
Summary of the method: as §1

CCc1cccc(Cl)c1COc1ccc2c(c1)CCC1C2OCCN1CCC(=O)O (centres unmarked) [Compound 82, 3-(8-((2-chloro-6-ethylbenzyl)oxy)-5,6-dihydro-2H-naphtho[1,2-b][1,4]oxazin-4(3H,4aH,10bH)-yl)propanoic acid hydrochloride]
pEC50 [1]: > 8.00 | pEC50 [2]: > 6.00 | pEC50 [3]: < 6.00 | pEC50 [4]: > 6.00

O=C(O)C1CN(C2COc3cc(OCCc4c(Cl)cccc4Cl)ccc3C2)C1 (centres unmarked) [Compound 69, 1-(7-(2,6-dichlorophenethoxy)chroman-3-yl)azetidine-3-carboxylic acid]
pEC50 [1]: 7.00 to 8.00 | pEC50 [2]: < 6.00 | pEC50 [3]: < 6.00 | pEC50 [4]: < 6.00

O=C(O)C1CN(C2COc3cc(-c4ccc(OCC5CCCCC5)cc4)ccc3C2)C1 (centres unmarked) [Compound 55, 1-(7-(4-(cyclohexylmethoxy)phenyl)chroman-3-yl)azetidine-3-carboxylic acid]
pEC50 [1]: > 8.00 | pEC50 [2]: > 6.00 | pEC50 [3]: < 6.00 | pEC50 [4]: < 6.00

CN(CCC(=O)O)C1CCc2cc(OCc3ccccc3Cl)ccc2C1 (centres unmarked) [Compound 16, 3-((6-((2-chlorobenzyl)oxy)-1,2,3,4-tetrahydronaphthalen-2-yl)(methyl)amino)propanoic acid]
pEC50 [1]: 6.00 to 7.00 | pEC50 [2]: < 6.00 | pEC50 [3]: < 6.00 | pEC50 [4]: > 6.00

O=C(O)C1CCN(C2CCc3cc(OCc4c(Cl)cccc4Cl)ccc3C2)C1 (centres unmarked) [Compound 74, 1-(6-((2,6-dichlorobenzyl)oxy)-1,2,3,4-tetrahydronaphthalen-2-yl)pyrrolidine-3-carboxylic acid]
pEC50 [1]: > 8.00 | pEC50 [2]: < 6.00 | pEC50 [3]: < 6.00 | pEC50 [4]: > 6.00
